# Source: ChEMBL document CHEMBL1140823, “Pyrazolopyridines with potent activity against herpesviruses: effects of C5 substituents on antiviral activity” (Bioorg Med Chem Lett, 2008)
# Key:
# Human alphaherpesvirus 1 = assay: Antiviral activity against HSV1 SC16 in african green monkey Vero cells; type: functional, organism-based; conditions: Human alphaherpesvirus 1, SC16, Vero
# [1] = Cytotoxicity against african green monkey Vero cells; type: cell-based; conditions: chlorocebus sabaeus
IC50 (Human alphaherpesvirus 1) [nM],Structure (SMILES),CC50 [1] [nM]
530,Fc1ccc(-c2nn3ccc(NC4CCCC4)cc3c2-c2ccnc(NC3CCCC3)n2)cc1,18000
220,COc1ccc(-c2nn3c(NC4CCCC4)cccc3c2-c2ccnc(NC3CCCC3)n2)cc1,> 100000
210,COc1ccc(-c2nn3c(SC(C)C)cc(NC4CCCC4)cc3c2-c2ccnc(NC3CCCC3)n2)cc1,> 40000
170,Fc1ccc(-c2nn3c(NC4CCCC4)cc(OCC4CC4)cc3c2-c2ccnc(NC3CCCC3)n2)cc1,> 40000
560,CC(C)COc1ccc(-c2nn3ccc(NC4CCCC4)cc3c2-c2ccnc(NC3CCCC3)n2)cc1,27000
220,COc1ccc(-c2nn3c(SC)cc(NC4CCCC4)cc3c2-c2ccnc(NC3CCCC3)n2)cc1,> 40000
70,CC(C)Oc1cc(NC2CCCC2)n2nc(-c3ccc(F)cc3)c(-c3ccnc(NC4CCCC4)n3)c2c1,> 40000
170,c1cc(NC2CCCC2)n2nc(-c3ccc(OCC4CC4)cc3)c(-c3ccnc(NC4CCCC4)n3)c2c1,> 40000
320,COCCOc1cc(NC2CCCC2)n2nc(-c3ccc(F)cc3)c(-c3ccnc(NC4CCCC4)n3)c2c1,> 40000
330,c1cc(-c2c(-c3ccc(OCC4CC4)cc3)nn3ccc(NC4CCCC4)cc23)nc(NC2CCCC2)n1,> 40000
1360,Fc1ccc(-c2nn3c(Cl)cc(NC4CCCC4)cc3c2-c2ccnc(NC3CCCC3)n2)cc1,> 40000
340,COc1ccc(-c2nn3c(NC4CC4)cc(Cl)cc3c2-c2ccnc(NC3CCCC3)n2)cc1,> 40000
330,Fc1ccc(-c2nn3c(NC4CCCC4)cc(Cl)cc3c2-c2ccnc(NC3CCCC3)n2)cc1,> 40000
220,COc1ccc(-c2nn3c(NC4CCCC4)cc(Cl)cc3c2-c2ccnc(NC3CCCC3)n2)cc1,> 40000
210,COc1ccc(-c2nn3ccc(NC4CCCC4)cc3c2-c2ccnc(NC3CCCC3)n2)cc1,12300
70,CCSc1cc(NC2CCCC2)cc2c(-c3ccnc(NC4CCCC4)n3)c(-c3ccc(F)cc3)nn12,> 40000
130,COc1cc(NC2CCCC2)n2nc(-c3ccc(F)cc3)c(-c3ccnc(NC4CCCC4)n3)c2c1,> 40000
240,Fc1ccc(-c2nn3c(NC4CCCC4)cc(NC4CCCC4)cc3c2-c2ccnc(NC3CCCC3)n2)cc1,> 40000
160,CCOc1cc(NC2CCCC2)cc2c(-c3ccnc(NC4CCCC4)n3)c(-c3ccc(F)cc3)nn12,20600
170,CSc1cc(NC2CCCC2)cc2c(-c3ccnc(NC4CCCC4)n3)c(-c3ccc(F)cc3)nn12,> 40000
1800,COc1ccc(-c2nn3c(Sc4ccccc4)cc(NC4CCCC4)cc3c2-c2ccnc(NC3CCCC3)n2)cc1,> 40000
40,CCSc1cc(NC2CCCC2)cc2c(-c3ccnc(NC4CCCC4)n3)c(-c3ccc(OC)cc3)nn12,> 40000

# Second part, the compound before the results:
Structure (SMILES),IC50 (Human alphaherpesvirus 1) [nM],CC50 [1] [nM]
CN(C)c1cc(Cl)cc2c(-c3ccnc(NC4CCCC4)n3)c(-c3ccc(F)cc3)nn12,380,> 40000
Nc1ccn2nc(-c3ccc(F)cc3)c(-c3ccnc(NC4CCCC4)n3)c2c1,5070,20000
Fc1ccc(-c2nn3c(N4CCOCC4)cc(Cl)cc3c2-c2ccnc(NC3CCCC3)n2)cc1,180,> 40000
CC(C)Nc1cc(Cl)cc2c(-c3ccnc(NC4CCCC4)n3)c(-c3ccc(F)cc3)nn12,1500,> 40000
COc1ccc(-c2nn3c(Cl)cc(Cl)cc3c2-c2ccnc(NC3CCCC3)n2)cc1,5300,> 40000
Fc1ccc(-c2nn3ccc(Cl)cc3c2-c2ccnc(NC3CCCC3)n2)cc1,> 5000,> 40000
COc1ccn2nc(-c3ccc(F)cc3)c(-c3ccnc(NC4CCCC4)n3)c2c1,> 36000,> 36000
COCCOc1cc(NC2CCCC2)cc2c(-c3ccnc(NC4CCCC4)n3)c(-c3ccc(F)cc3)nn12,80,32500
Fc1ccc(-c2nn3c(Cl)cc(Cl)cc3c2-c2ccnc(NC3CCCC3)n2)cc1,7000,> 40000
CC(C)Sc1cc(NC2CCCC2)cc2c(-c3ccnc(NC4CCCC4)n3)c(-c3ccc(F)cc3)nn12,370,> 40000
COc1ccc(-c2nn3ccc(Cl)cc3c2-c2ccnc(NC3CCCC3)n2)cc1,4270,> 40000
COCCNc1ccn2nc(-c3ccc(F)cc3)c(-c3ccnc(NC4CCCC4)n3)c2c1,830,> 40000
COc1ccc(-c2nn3ccc(NC(C)C)cc3c2-c2ccnc(NC3CCCC3)n2)cc1,920,> 40000
Nc1nc2c(ncn2COCCO)c(=O)[nH]1 [ACYCLOVIR],390,> 200000
Fc1ccc(-c2nn3c(N4CCCCC4)cc(Cl)cc3c2-c2ccnc(NC3CCCC3)n2)cc1,150,> 40000
CC(C)Nc1cc(NC(C)C)n2nc(-c3ccc(F)cc3)c(-c3ccnc(NC4CCCC4)n3)c2c1,550,> 40000
Fc1ccc(-c2nn3c(NC4CCCC4)cccc3c2-c2ccnc(NC3CCCC3)n2)cc1,260,> 160000
Fc1ccc(-c2nn3c(NC4CC4)cc(Cl)cc3c2-c2ccnc(NC3CCCC3)n2)cc1,330,> 40000
Fc1ccc(-c2nn3ccc(N4CCOCC4)cc3c2-c2ccnc(NC3CCCC3)n2)cc1,3630,34000
Fc1ccc(-c2nn3ccc(N4CCCC4)cc3c2-c2ccnc(NC3CCCC3)n2)cc1,1350,> 40000
CC(C)Nc1ccn2nc(-c3ccc(F)cc3)c(-c3ccnc(NC4CCCC4)n3)c2c1,2730,> 40000
